Results reported in article PMC7377239, “Cardiovascular Effects of Polychlorinated Biphenyls and Their Major Metabolites” (Environmental Health Perspectives, 2020).
Counter-ions that a name gives are not always drawn.

Tested on: iPSC-CMs, iPSC-ECs and HUVECs phenotypes
Experiment: ToxPi 2.0 integration of POD values and physicochemical descriptors
Set-up: species or system human
Settings: ToxPi-scaled (0-1) score; for huvec.cyto.24hr / huvec.mito.24hr / huvec.mitoint.24hr / huvec.nma.24hr / huvec.tc.24hr / huvec.mtl.18hr / huvec.tlps.18hr / huvec.tta.18hr / huvec.ttl.18hr: HUVECs; for huvec.mtl.18hr / huvec.tlps.18hr / huvec.tta.18hr / huvec.ttl.18hr / endo.mtl.18hr / endo.tlps.18hr / endo.tta.18hr / endo.ttl.18hr: tube formation; for cm.amp.avg.90min / cm.amp.cv.90min / cm.bpm.90min / cm.cam.90min / cm.decay.rise.90min / cm.mii.90min / cm.mito.90min / cm.spacing.cv.90min / cm.tc.90min / cm.amp.avg.24hrs / cm.amp.cv.24hrs / cm.bpm.24hrs / cm.cam.24hrs / cm.decay.rise.24hrs / cm.mii.24hrs / cm.mito.24hrs / cm.spacing.cv.24hrs / cm.tc.24hrs: iPSC cardiomyocytes; for endo.cyto.24hr / endo.mito.24hr / endo.mitoint.24hr / endo.nma.24hr / endo.tc.24hr / endo.mtl.18hr / endo.tlps.18hr / endo.tta.18hr / endo.ttl.18hr: iPSC endothelial cells
Excerpt: Phenotypic responses were quantitatively assessed using concentration–response modeling as detailed elsewhere ([Sirenko et al. 2017]). Briefly, phenotypic readouts were normalized to vehicle controls and fit to a four-parameter logistic model in R studio software (version 3.1.1; R Development Core Team). Following EPA guidance on dose–response modeling, a cutoff of one standard deviation across means of vehicle control (i.e., 0.5% vol/vol DMSO in cell culture media) wells was applied to determine the point-of-departure (POD) values ([U.S. EPA 2012]). In the absence of a concentration–response, the highest tested concentration (i.e., 100μM ) was assigned as “no observable adverse effect level.” The concentration–response assessment R script, as well as templates for vehicle and concentration–response data, are available as a supplement to Sirenko et al. ([2017]). The ability of physicochemical properties to predict differences in PODs were evaluated by multiregression and mixed-effects modeling using R.
POD values were then integrated using ToxPi 2.0 ([Marvel et al. 2018]) software. In ToxPi, each slice is representative of cell type– and time-point–specific phenotypes. The area of each slice is proportional to the relative value (e.g., bioactivity or physicochemical descriptor value) of the chemical within the data set. ToxPi scores were used to rank PCBs and their metabolites according to their overall bioactivity and to determine variability in total observable biological responses and chemical characteristics for each major metabolite class and chlorination status (mono-, hexa-chlorinated). Additional visualizations such as dumbbell and principal components analysis plots were generated in R Studio (version 1.1.456; R version 3.5.1; R Development Core Team) using the ggplot2 package.

| SMILES | huvec.cyto.24hr | huvec.mito.24hr | huvec.mitoint.24hr | huvec.nma.24hr | huvec.tc.24hr | huvec.mtl.18hr | huvec.tlps.18hr | huvec.tta.18hr | huvec.ttl.18hr | cm.amp.avg.90min | cm.amp.cv.90min | cm.bpm.90min | cm.cam.90min | cm.decay.rise.90min | cm.mii.90min | cm.mito.90min | cm.spacing.cv.90min | cm.tc.90min | cm.amp.avg.24hrs | cm.amp.cv.24hrs | also measured |
| --- | --- | --- | --- | --- | --- | --- | --- | --- | --- | --- | --- | --- | --- | --- | --- | --- | --- | --- | --- | --- | --- |
| COc1cc(Cl)c(-c2cc(Cl)ccc2Cl)cc1Cl [4-OMe-PCB 52, 4-methoxy-2,2′,5,5′-tetrachlorobiphenyl] | 0.503 | 0.6182 | 0.7163 | 0.4778 | 0.503 | 0.3949 | 0.3694 | 0 | 0 | 0.7151 | 0.1921 | 0.6456 | 0.5317 | 0.5533 | 0.2088 | 0.6868 | 0.09243 | 0.4554 | 0 | 0.07106 | cm.bpm.24hrs: 0.2075; cm.cam.24hrs: 0.1487; cm.decay.rise.24hrs: 0.2631; cm.mii.24hrs: 0.763; cm.mito.24hrs: 0.2211; cm.spacing.cv.24hrs: 0.2504; cm.tc.24hrs: 0.2416; endo.cyto.24hr: 0.1456; endo.mito.24hr: 0.1456; endo.mitoint.24hr: 0; endo.nma.24hr: 0.1018; endo.tc.24hr: 0.1602; endo.mtl.18hr: 0.06827; endo.tlps.18hr: 0.09286; endo.tta.18hr: 0.06026; endo.ttl.18hr: 0.05573 |
| O=S(=O)(O)Oc1ccc(-c2cccc(Cl)c2)cc1Cl [4-PCB 11 sulfate] | 0.07428 | 0.09457 | 0.4402 | 0.4481 | 0.07428 | 0.4352 | 0.2468 | 0 | 0 | 0.5438 | 0.207 | 0.3056 | 0 | 0.417 | 0 | 0 | 0.1011 | 0 | 0.2154 | 0.3772 | cm.bpm.24hrs: 0.2853; cm.cam.24hrs: 0.3798; cm.decay.rise.24hrs: 0.3284; cm.mii.24hrs: 0.1874; cm.mito.24hrs: 0.571; cm.spacing.cv.24hrs: 0.2596; cm.tc.24hrs: 0.6332; endo.cyto.24hr: 0; endo.mito.24hr: 0; endo.mitoint.24hr: 0; endo.nma.24hr: 0; endo.tc.24hr: 0; endo.mtl.18hr: 0.1436; endo.tlps.18hr: 0.3311; endo.tta.18hr: 0.1419; endo.ttl.18hr: 0.1256 |
| O=S(=O)(O)Oc1cc(Cl)c(-c2cc(Cl)ccc2Cl)cc1Cl [4-PCB 52 sulfate] | 0.3025 | 0.4046 | 0.09717 | 0.1382 | 0.3025 | 0.4309 | 0.4338 | 0 | 0 | 0.5595 | 0.2844 | 0.3731 | 0.9201 | 0.4741 | 0.3306 | 0.9162 | 0.09545 | 0.9127 | 0 | 0.4327 | cm.bpm.24hrs: 0.3667; cm.cam.24hrs: 0.3358; cm.decay.rise.24hrs: 0.4673; cm.mii.24hrs: 0.2133; cm.mito.24hrs: 0.5368; cm.spacing.cv.24hrs: 0.207; cm.tc.24hrs: 0.5686; endo.cyto.24hr: 0.1547; endo.mito.24hr: 0.1547; endo.mitoint.24hr: 0; endo.nma.24hr: 0; endo.tc.24hr: 0.1212; endo.mtl.18hr: 0.2716; endo.tlps.18hr: 0.4577; endo.tta.18hr: 0.2209; endo.ttl.18hr: 0.2158 |
| Oc1cc(Cl)cc(-c2cccc(Cl)c2)c1 [5-OH-PCB 11] | 0.4815 | 0.5672 | 0.6755 | 0.5619 | 0.4815 | 0.5955 | 0 | 0 | 0.1684 | 0.6478 | 0.2678 | 0.7407 | 0.7498 | 0.5778 | 0.4013 | 0.8059 | 0.07982 | 0.8069 | 0.069 | 0.2233 | cm.bpm.24hrs: 0.1451; cm.cam.24hrs: 0.2664; cm.decay.rise.24hrs: 0.2666; cm.mii.24hrs: 0.6539; cm.mito.24hrs: 0.4142; cm.spacing.cv.24hrs: 0.2695; cm.tc.24hrs: 0.5144; endo.cyto.24hr: 0.1503; endo.mito.24hr: 0.1503; endo.mitoint.24hr: 0.08226; endo.nma.24hr: 0.3443; endo.tc.24hr: 0.1482; endo.mtl.18hr: 0.3075; endo.tlps.18hr: 0.4586; endo.tta.18hr: 0.2424; endo.ttl.18hr: 0.241 |
| Clc1ccc(Cl)c(-c2c(Cl)ccc(Cl)c2Cl)c1Cl [(+)-PCB 136, 2,2′,3,3′,6,6′-hexachlorobiphenyl] | 0.7118 | 0.6728 | 1 | 0.5111 | 0.7118 | 0.4492 | 0 | 0 | 0 | 0.6409 | 0.2396 | 0.7987 | 0.4781 | 0.1898 | 0.5827 | 0.4679 | 0.07704 | 0.4097 | 0.5612 | 0.5448 | cm.bpm.24hrs: 0.7213; cm.cam.24hrs: 0.5816; cm.decay.rise.24hrs: 0.9212; cm.mii.24hrs: 0.1793; cm.mito.24hrs: 0.8542; cm.spacing.cv.24hrs: 0.7501; cm.tc.24hrs: 1; endo.cyto.24hr: 0.1692; endo.mito.24hr: 0.1692; endo.mitoint.24hr: 0.294; endo.nma.24hr: 0; endo.tc.24hr: 0.1732; endo.mtl.18hr: 0.04754; endo.tlps.18hr: 0.448; endo.tta.18hr: 0.8586; endo.ttl.18hr: 0.8499 |
| Clc1ccc(Cl)c(-c2c(Cl)ccc(Cl)c2Cl)c1Cl [(-)-PCB 136, 2,2′,3,3′,6,6′-hexachlorobiphenyl] | 0.6125 | 0.5549 | 0.9537 | 0.4969 | 0.6125 | 0.3427 | 0.303 | 0.01368 | 0 | 0.7629 | 0.2327 | 0.26 | 0.908 | 0.5565 | 0.3116 | 0.9077 | 0.07999 | 0.9177 | 0.7236 | 1 | cm.bpm.24hrs: 0.3802; cm.cam.24hrs: 0.2824; cm.decay.rise.24hrs: 0.8976; cm.mii.24hrs: 0.3373; cm.mito.24hrs: 0.4521; cm.spacing.cv.24hrs: 0.2002; cm.tc.24hrs: 0.472; endo.cyto.24hr: 0.3713; endo.mito.24hr: 0.3713; endo.mitoint.24hr: 0.4668; endo.nma.24hr: 0; endo.tc.24hr: 0.3821; endo.mtl.18hr: 0.07274; endo.tlps.18hr: 0.09334; endo.tta.18hr: 0.6122; endo.ttl.18hr: 0.627 |
